Earlier results on one substance are cited in PMC3172902 (British Journal of Cancer, 2011).

pIC50: −log10 of the molar value.

The series deals with CDK2 (Homo sapiens, UniProt P24941). Kind of series: cell-free CDK2 inhibition (value printed without citation; method not described). In kind it is biochemical.

As a reminder, the pIC50 is the negative decadic logarithm of the IC50, by convention in mol/L. Regarding NU6252, the pIC50 is 7.72.
